Patent publication US20200000772A1, “CENICRIVIROC COMBINATION THERAPY FOR THE TREATMENT OF FIBROSIS” (Tobira Therapeutics, Inc., priority 2014, published 2020)

Legend:
[1] = Mouse toxicity studies without surgical procedures; type: in vivo; settings: CVC doses up to 2000 mg/kg/day
[2] = tested on: adults with CCR5 tropic HIV-1; experiment: Study 202 post-hoc APRI and FIB-4 fibrosis index scores; type: in vivo, human
Experimental: APRI and FIB-4 scores were calculated. Change in score category from baseline (BL) to Weeks 24 and 48 was assessed in patients with non-missing data. Correlations between changes from BL in APRI and FIB-4 scores, and MCP-1 (CCR2 ligand) and sCD14 (inflammatory biomarker) levels were evaluated.

[3] = tested on: thioacetamide (TAA)-induced hepatic fibrosis; experiment: Rat model of thioacetamide-induced liver fibrosis and cirrhosis; type: in vivo, Sprague-Dawley rats; settings: first 8 weeks
Experimental: Fibrosis was induced in male Sprague-Dawley rats by intraperitoneal administration of TAA 150 mg/kg 3 times/week for 8 weeks. […] Biochemical, gene expression and histologic evaluations of the liver were conducted.

[4] = Tissue distribution in rodents; type: in vivo
From the text: Infiltration of various immune cell populations, resulting in inflammation, is a central pathogenic feature following acute- and chronic liver injury. Chronic liver inflammation leads to continuous hepatocyte injury which can lead to fibrosis, cirrhosis, ESLD, and HCC. Interactions between intra-hepatic immune cells lead to increased activation and migration of Kupffer cells and HSCs and are critical events for developing liver fibrosis. Additionally, there is increasing evidence of the role of CCR2 and CCR5 in the pathogenesis of liver fibrosis. These members of the C-C chemokine family are expressed by pro-fibrogenic cells including pro-inflammatory monocytes and macrophages, Kupffer cells, and HSCs. CCR2 signaling plays an important role in the pathogenesis of renal fibrosis through regulation of bone marrow-derived fibroblasts. CCR2- and CCR5-positive monocytes as well as CCR5-positive T lymphocytes are attracted by locally released MCP-1 and RANTES, and can contribute to chronic interstitial inflammation in the kidney. […] Disruption of the intestinal microbiota and its downstream effects on the gut-liver axis both play an important role in metabolic disorders such as obesity, non-alcoholic fatty liver disease (NAFLD) and non-alcoholic steatohepatitis (NASH).

CCR5 = CCR5 (Homo sapiens, UniProt P51681); experiment: CCR5 antagonism in in vitro, ex vivo and clinical studies; settings: ex vivo, Studies 652-2-201 and 652-2-202
[5] = Phase 1 CVC and pioglitazone co-administration PK and safety study; type: in vivo, healthy subjects; settings: CVC 150 mg QD and PGZ 45 mg QD
Experimental: Plasma samples were collected prior to each dose and over 24 hours at the end of each treatment period. Cmax, Cmin, tmax, and AUC0-tau were determined using non-compartmental methods. Geometric means, GMRs and CIs were calculated.

[6] = Chronic (3- and 9-month) monkey toxicity studies; type: in vivo
[7] = tested on: STAM™ mouse model of Non-alcoholic Steatohepatitis; experiment: STAM mouse model of NASH, Part 1: anti-NASH/fibrosis effects at week 9; type: in vivo, mice; settings: for Body weight / Liver-to-body weight ratio / Collagen Type 1 mRNA expression level (liver, quantitative RT-PCR) / MCP-1 mRNA expression level (liver, quantitative RT-PCR) / TIMP-1 mRNA expression level (liver, quantitative RT-PCR): mean ± SD; for Collagen Type 1 mRNA expression level (liver, quantitative RT-PCR) / MCP-1 mRNA expression level (liver, quantitative RT-PCR) / TIMP-1 mRNA expression level (liver, quantitative RT-PCR): Vehicle 1.00
Experimental: NASH was induced in male mice by a single injection of 200 μg streptozotocin 2 days after birth (causing impaired glucose control), followed by a high fat diet from 4 weeks of age. […] Animals were sacrificed at 9 weeks of age, and biochemical, gene expression, and histologic evaluations of the liver were conducted. […] Group 2-Cenicriviroc 20 mg/kg (CVC-low): […] [table]

[8] = tested on: STAM™ mouse model of Non-alcoholic Steatohepatitis; experiment: STAM mouse model of NASH, Part 2: anti-HCC effects at week 18; settings: for Body weight / Liver-to-body weight ratio: mean ± SD; for mice that died (survival analysis): 6 to 18 weeks
Experimental: Group 1-Vehicle: Eighteen NASH mice were orally administered vehicle at a volume of 10 mL/kg twice daily (9:00 and 19:00) from 6 weeks of age.

CCR2 = CCR2 (Homo sapiens, UniProt P41597); experiment: CCR2 antagonism in in vitro, ex vivo and clinical studies; settings: ex vivo, Studies 652-2-201 and 652-2-202
From the text: Clinical evidence of CCR2 and CCR5 antagonism was established by measuring changes from baseline in plasma MCP-1 (a ligand of CCR2) concentrations and changes in plasma HIV-RNA (CCR5 co-receptor required for HIV entry), respectively, in these 2 Phase 2 Studies.

[9] = CVC-high 100 mg/kg/day, week 9, listed as Cenicriviroc
[10] = CVC-high 100 mg/kg/day, week 9, n = 6
[11] = CVC-low 20 mg/kg/day, week 9, listed as Cenicriviroc
[12] = CVC-low 20 mg/kg/day, week 9, n = 6
[13] = CVC-high 100 mg/kg/day, week 18
[14] = CVC-high 100 mg/kg/day, week 18, listed as Cenicriviroc
[15] = CVC-low 20 mg/kg/day, week 18, listed as Cenicriviroc

CCR5, sequence (P51681 whole entry): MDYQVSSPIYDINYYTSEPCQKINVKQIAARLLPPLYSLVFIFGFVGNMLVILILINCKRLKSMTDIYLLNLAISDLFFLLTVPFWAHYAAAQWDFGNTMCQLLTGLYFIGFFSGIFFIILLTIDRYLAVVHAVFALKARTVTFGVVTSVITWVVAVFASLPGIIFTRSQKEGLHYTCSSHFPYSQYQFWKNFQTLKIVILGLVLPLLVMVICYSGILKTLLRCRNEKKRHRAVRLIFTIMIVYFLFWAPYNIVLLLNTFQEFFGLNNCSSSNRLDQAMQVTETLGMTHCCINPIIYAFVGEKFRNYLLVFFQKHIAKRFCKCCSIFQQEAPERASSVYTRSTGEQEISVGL
CCR2, sequence (P41597 whole entry): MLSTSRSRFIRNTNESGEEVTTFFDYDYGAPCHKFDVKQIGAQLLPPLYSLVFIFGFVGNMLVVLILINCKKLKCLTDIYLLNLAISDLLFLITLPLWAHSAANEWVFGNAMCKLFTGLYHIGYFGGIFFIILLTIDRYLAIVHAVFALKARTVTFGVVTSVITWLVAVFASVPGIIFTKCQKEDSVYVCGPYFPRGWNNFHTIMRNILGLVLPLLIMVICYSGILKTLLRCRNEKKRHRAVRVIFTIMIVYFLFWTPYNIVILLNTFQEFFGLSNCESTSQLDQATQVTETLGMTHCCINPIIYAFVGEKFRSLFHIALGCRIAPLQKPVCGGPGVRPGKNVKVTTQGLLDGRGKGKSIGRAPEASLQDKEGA

CCCCOCCOc1ccc(-c2ccc3c(c2)/C=C(/C(=O)Nc2ccc([S@@+]([O-])Cc4cncn4CCC)cc2)CCCN3CC(C)C)cc1 [CVC, (S)-8-[4-(2-Butoxyethoxy)phenyl]-1-isobutyl-N-(4-{[(1-propyl-1H-imidazol-5-yl)methyl]sulfinyl}phenyl)-1,2,3,4-tetrahydro-1-benzazocine-5-carboxamide]
tolerability [1]: well tolerated | subjects with APRI 0.5-1.5 ([2]; Baseline): 14% | subjects with APRI <0.5 ([2]; Baseline): 84% | subjects with APRI >1.5 ([2]; Baseline): 2% | subjects with FIB-4 1.45-3.25 ([2]; Baseline): 17% | subjects with FIB-4 <1.45 ([2]; Baseline): 82% | subjects with FIB-4 >3.25 ([2]; Baseline): 1% | subjects with APRI 0.5-1.5 ([2]; Week 24): 7% | subjects with APRI <0.5 ([2]; Week 24): 93% | subjects with APRI decreased 1 category from baseline ([2]; Week 24): 14% | subjects with FIB-4 1.45-3.25 ([2]; Week 24): 7% | subjects with FIB-4 <1.45 ([2]; Week 24): 93% | subjects with FIB-4 decreased 1 category from baseline ([2]; Week 24): 13% | subjects with APRI 0.5-1.5 ([2]; Week 48): 8% | subjects with APRI <0.5 ([2]; Week 48): 91% | subjects with APRI >1.5 ([2]; Week 48): 1% | subjects with APRI decreased 1 category from baseline ([2]; Week 48): 10% | subjects with FIB-4 1.45-3.25 ([2]; Week 48): 5% | subjects with FIB-4 <1.45 ([2]; Week 48): 94% | subjects with FIB-4 >3.25 ([2]; Week 48): 1% | subjects with FIB-4 decreased 1 category from baseline ([2]; Week 48): 14% | subjects with improvements in APRI and FIB-4 scores over time ([2]; pooled data for CVC 100 mg and 200 mg): ≥ 10% | reduction of fibrosis by collagen morphometry ([3]; Group 1a: CVC 30 mg/kg/day concurrently with TAA): 49% | reduction of fibrosis by collagen morphometry ([3]; Group 1b: CVC 100 mg/kg/day concurrently with TAA): 38% | tissue distribution [4]: high distribution in the liver, mesenteric lymph node, and intestine | antagonism of CCR5 (CCR5): potent and concentration-dependent antagonism | Cmin on co-administration [5]: remained unchanged | steady-state Cmax and AUC0-tau on co-administration [5]: modest decrease | plasma MCP-1 levels, fold over controls ([6]; 1000 mg/kg/day, chronic (3- and 9-month) monkey toxicity studies): ~5 fold | indication of inflammation in clinical pathology parameters or any tissue incl. liver ([6]; high dose of 1000 mg/kg/day): No indication of inflammation | collagen type 1 mRNA in whole liver lysates, decrease (real-time RT-PCR) ([7]; CVC treatment 20 and 100 mg/kg/day, 9 weeks of age): 27-37% | Body weight ([7]; CVC-high 100 mg/kg/day, week 9): 18.7 ± 0.9 g | Liver-to-body weight ratio ([7]; CVC-high 100 mg/kg/day, week 9): 7.0±0.8% | Collagen Type 1 mRNA expression level (liver, quantitative RT-PCR) ([7]; CVC-high 100 mg/kg/day, week 9): 0.73±0.04 | MCP-1 mRNA expression level (liver, quantitative RT-PCR) ([7]; CVC-high 100 mg/kg/day, week 9): 1.00±0.53 | TIMP-1 mRNA expression level (liver, quantitative RT-PCR) ([7]; CVC-high 100 mg/kg/day, week 9): 0.80±0.20 | Collagen Type 1 mRNA expression level (liver, quantitative RT-PCR) [7, 9]: 0.73 ± 0.04 | MCP-1 mRNA expression level (liver, quantitative RT-PCR) [7, 9]: 1.00 ± 0.53 | TIMP-1 mRNA expression level (liver, quantitative RT-PCR) [7, 9]: 0.80 ± 0.20 | Body weight [7, 9]: 18.7 ± 0.9 g | Liver-to-body weight ratio [7, 9]: 7.0 ± 0.8% | Hepatocyte ballooning score 0 (None), number of mice [7, 10]: 1 | Hepatocyte ballooning score 1 (Few balloon cells), number of mice [7, 10]: 2 | Hepatocyte ballooning score 2 (Many cells/prominent ballooning), number of mice [7, 10]: 3 | Lobular inflammation score 1 (<2 foci/200x), number of mice [7, 10]: 3 | Lobular inflammation score 2 (2-4 foci/200x), number of mice [7, 10]: 3 | Steatosis score 0 (<5%), number of mice [7, 10]: 1 | Steatosis score 1 (5-33%), number of mice [7, 10]: 5 | Body weight ([7]; CVC-low 20 mg/kg/day, week 9): 19.5 ± 2.0 g | Liver-to-body weight ratio ([7]; CVC-low 20 mg/kg/day, week 9): 6.9±1.0% | Collagen Type 1 mRNA expression level (liver, quantitative RT-PCR) ([7]; CVC-low 20 mg/kg/day, week 9): 0.63±0.10 | TIMP-1 mRNA expression level (liver, quantitative RT-PCR) ([7]; CVC-low 20 mg/kg/day, week 9): 0.75±0.32 | Collagen Type 1 mRNA expression level (liver, quantitative RT-PCR) [7, 11]: 0.63 ± 0.10 | TIMP-1 mRNA expression level (liver, quantitative RT-PCR) [7, 11]: 0.75 ± 0.32 | Body weight [7, 11]: 19.5 ± 2.0 g | Liver-to-body weight ratio [7, 11]: 6.9 ± 1.0% | Hepatocyte ballooning score 1 (Few balloon cells), number of mice [7, 12]: 3 | Hepatocyte ballooning score 2 (Many cells/prominent ballooning), number of mice [7, 12]: 3 | Lobular inflammation score 1 (<2 foci/200x), number of mice [7, 12]: 3 | Lobular inflammation score 2 (2-4 foci/200x), number of mice [7, 12]: 3 | Steatosis score 1 (5-33%), number of mice [7, 12]: 6 | general condition throughout the treatment period ([7]; CVC-low and CVC-high, until week 9): None of the animals in the present study showed deterioration in general condition | effect on NASH-derived HCC ([8]; CVC treatment groups, week 18): not observed | Body weight [8, 13]: 20.8 ± 2.7 g | Liver-to-body weight ratio [8, 13]: 8.8±2.3% | Body weight [8, 14]: 20.8 ± 2.7 g | Liver-to-body weight ratio [8, 14]: 8.8 ± 2.3% | mice that died (survival analysis) ([8]; CVC-high group): Five out of twelve mice died | mice with GS-positive nodules ([8]; CVC-high group, week 18): seven out of seven mice | mice with HCC lesions (HE staining) ([8]; CVC-high group, week 18): six out of seven mice | Body weight ([8]; CVC-low 20 mg/kg/day, week 18): 22.9 ± 3.5 g | Liver-to-body weight ratio ([8]; CVC-low 20 mg/kg/day, week 18): 8.3±2.8% | Body weight [8, 15]: 22.9 ± 3.5 g | Liver-to-body weight ratio [8, 15]: 8.3 ± 2.8% | mice that died (survival analysis) ([8]; CVC-low group): Six out of twelve mice died | mice with GS-positive nodules ([8]; CVC-low group, week 18): five out of six mice | mice with HCC lesions (HE staining) ([8]; CVC-low group, week 18): five out of six mice | antagonism of CCR2 (CCR2): potent and concentration-dependent antagonism
